# Target: NAMPT enzyme (Homo sapiens (Human), UniProt P43490)
# Test: Enzyme Assay and NMN Detection (NAMPT reaction, fluorescence detection of NMN)
# Format: biochemical
# Conditions: Table B-1; NAMPT activation, NMN formation
# Method in brief: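 Reaction in 50 mM HEPES pH 7.5, 5 mM MgCl2, 0.1% Prionex, 0.005% Tween 20, 1 mM TCEP at room temperature, with 16 nM NAMPT, 120 uM ATP, 5 uM nicotinamide, 6.25 uM PRPP, 0.04 U/ml pyrophosphatase for 2 h. Stopped with acetophenone/KOH then formic acid; NMN quantified by fluorescence (ex380/em460) against calibration curve.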
# Sequence of NAMPT enzyme (P43490 whole entry, species assumed): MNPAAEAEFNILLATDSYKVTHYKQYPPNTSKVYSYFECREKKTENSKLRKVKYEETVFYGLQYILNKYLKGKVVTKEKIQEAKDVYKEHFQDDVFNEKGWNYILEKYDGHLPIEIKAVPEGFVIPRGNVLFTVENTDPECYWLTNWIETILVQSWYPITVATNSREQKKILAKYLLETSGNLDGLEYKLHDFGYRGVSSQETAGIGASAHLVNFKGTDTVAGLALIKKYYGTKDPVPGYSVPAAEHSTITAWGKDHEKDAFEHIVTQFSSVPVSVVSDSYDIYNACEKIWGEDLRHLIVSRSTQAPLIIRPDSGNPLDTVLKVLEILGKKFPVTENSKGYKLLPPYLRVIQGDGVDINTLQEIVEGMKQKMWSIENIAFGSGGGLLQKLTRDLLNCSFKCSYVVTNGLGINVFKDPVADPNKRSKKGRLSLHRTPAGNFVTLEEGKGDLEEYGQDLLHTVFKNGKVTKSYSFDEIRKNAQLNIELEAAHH
row,EC50 [nM],Structure (SMILES)
1,< 100,COc1ccc(CNS(=O)(=O)c2ccc(NC(=O)NCc3cn[nH]c3)cc2)cc1 [N-(4-Methoxy-benzyl)-4-[3-(1H-pyrazol-4-ylmethyl)-ureido]-benzenesulfonamide]
2,< 100,"O=C(NCc1cn[nH]c1)Nc1ccc(S(=O)(=O)N2CCc3ccccc3C2)cc1 [1-[4-(3,4-Dihydro-1H-isoquinoline-2-sulfonyl)-phenyl]-3-(1H-pyrazol-4-ylmethyl)-urea]"

# Same assay, conditions: Table B-2; NAMPT activation, NMN formation
row,EC50 [nM],Structure (SMILES)
1,> 20000,Cc1cccc(CNC(=O)c2ccc(NC(=O)NCc3ccncc3)cc2)c1 [N-(3-methylbenzyl)-4-(3-(pyridin-4-ylmethyl)ureido)benzamide]
2,5000 to 20000,O=C(NCc1ccncc1)Nc1ccc(C(=O)N2CCCCC2)cc1 [1-(4-(Piperidine-1-carbonyl)phenyl)-3-(pyridin-4-ylmethyl)urea]
3,> 20000,O=C(NCc1ccncc1)Nc1ccc(C(=O)NCc2ccc(F)cc2)cc1 [N-(4-fluorobenzyl)-4-(3-(pyridin-4-ylmethyl)ureido)benzamide]
4,100 to 2000,"Cc1ccc(NC(=O)c2ccc(NC(=O)NCc3ccncc3)cc2)cc1C [N-(3,4-dimethylphenyl)-4-(3-(pyridin-4-ylmethyl)ureido)benzamide]"
5,2000 to 5000,Cc1ccc(NC(=O)c2ccc(NC(=O)NCc3ccncc3)cc2)cc1 [4-(3-(Pyridin-4-ylmethyl)ureido)-N-(p-tolyl)benzamide]
6,> 20000,CCOC(=O)c1ccc(NC(=O)NCc2ccnc(OC)c2)cc1 [Ethyl 4-(3-((2-methoxypyridin-4-yl)methyl)ureido)benzoate]
7,5000 to 20000,O=C(NCc1ccncc1)Nc1ccc(S(=O)(=O)Nc2ncccn2)cc1 [4-(3-Pyridin-4-ylmethyl-ureido)-N-pyrimidin-2-yl-benzenesulfonamide]
8,> 20000,O=C(NCc1ccncc1)Nc1ccc(C(=O)NCc2ccncc2)cc1 [N-(pyridin-4-ylmethyl)-4-(3-(pyridin-4-ylmethyl)ureido)benzamide]
9,100 to 2000,COc1cccc(NC(=O)c2ccc(NC(=O)NCc3ccncc3)cc2)c1 [N-(3-methoxyphenyl)-4-(3-(pyridin-4-ylmethyl)ureido)benzamide]
10,> 20000,CCOC(=O)c1ccc(NC(=O)NCc2ccncc2Cl)cc1 [Ethyl 4-(3-((3-chloropyridin-4-yl)methyl)ureido)benzoate]
11,100 to 2000,O=C(NCc1ccncc1)Nc1ccc(C(=O)Nc2ccc(Cl)cc2)cc1 [N-(4-chlorophenyl)-4-(3-(pyridin-4-ylmethyl)ureido)benzamide]
12,100 to 2000,COc1ccccc1S(=O)(=O)Nc1ccc(NC(=O)NCc2ccncc2)cc1 [2-Methoxy-N-[4-(3-pyridin-4-ylmethyl-ureido)-phenyl]-benzenesulfonamide]
13,100 to 2000,O=C(NCc1ccncc1)Nc1ccc(C(=O)Nc2ccc(F)cc2)cc1 [N-(4-fluorophenyl)-4-(3-(pyridin-4-ylmethyl)ureido)benzamide]
14,100 to 2000,O=C(NCc1ccncc1)Nc1ccc(S(=O)(=O)NC2CCC2)cc1 [N-Cyclobutyl-4-(3-pyridin-4-ylmethyl-ureido)-benzenesulfonamide]
15,100 to 2000,CCOc1ccc(NC(=O)c2ccc(NC(=O)NCc3ccncc3)cc2)cc1 [N-(4-ethoxyphenyl)-4-(3-(pyridin-4-ylmethyl)ureido)benzamide]
16,> 20000,CCOC(=O)c1ccc(NC(=O)NCc2ccnc(N)c2)cc1 [Ethyl 4-(3-((2-aminopyridin-4-yl)methyl)ureido)benzoate]
17,100 to 2000,O=C(NCc1ccncc1)Nc1ccc(C(=O)N2CC3CCC(C2)O3)cc1 [1-(4-(8-Oxa-3-azabicyclo[3.2.1]octane-3-carbonyl)phenyl)-3-(pyridin-4-ylmethyl)urea]
18,100 to 2000,O=C(NCc1ccncc1)Nc1ccc(S(=O)(=O)NCc2cccc(F)c2)cc1 [N-(3-fluorobenzyl)-4-(3-(pyridin-4-ylmethyl)ureido)benzenesulfonamide]
19,5000 to 20000,O=C(NCc1ccncc1)Nc1ccc(C(=O)NC2CCCC2)cc1 [N-cyclopentyl-4-(3-(pyridin-4-ylmethyl)ureido)benzamide]
20,> 20000,O=C(NCc1ccncc1)Nc1ccc(C(=O)Nc2cccnc2)cc1 [N-(pyridin-3-yl)-4-(3-(pyridin-4-ylmethyl)ureido)benzamide]
21,100 to 2000,Cc1ccc(CNS(=O)(=O)c2ccc(NC(=O)NCc3ccncc3)cc2)cc1 [N-(4-methylbenzyl)-4-(3-(pyridin-4-ylmethyl)ureido)benzenesulfonamide]
22,2000 to 5000,O=C(NCc1ccncc1)Nc1ccc(S(=O)(=O)NCCO)cc1 [N-(2-Hydroxy-ethyl)-4-(3-pyridin-4-ylmethyl-ureido)-benzenesulfonamide]

# Same assay, conditions: Table B-3; NAMPT activation, NMN formation
row,EC50 [nM],Structure (SMILES)
1,> 20000,O=C(NCc1ccccn1)Nc1ccc(C(F)(F)F)cc1 [1-(Pyridin-2-ylmethyl)-3-(4-(trifluoromethyl)phenyl)urea]
2,> 20000,O=C(NCc1cccnc1)Nc1ccc(C(F)(F)F)cc1 [1-(Pyridin-3-ylmethyl)-3-(4-(trifluoromethyl)phenyl)urea]
3,> 20000,CCOC(=O)c1ccc(NC(=O)NCc2ccncc2Cl)cc1 [Ethyl 4-(3-((3-chloropyridin-4-yl)methyl)ureido)benzoate]

# Same assay, conditions: Table B-4; NAMPT activation, NMN formation
row,EC50 [nM],Structure (SMILES)
1,> 20000,O=C(NCc1cn[nH]c1)Nc1ccc(Nc2nc3ccccc3s2)cc1 [1-((1H-Pyrazol-4-yl)methyl)-3-(4-(benzo[d]thiazol-2-ylamino)phenyl)urea]
2,100 to 2000,O=C(NCc1cn[nH]c1)Nc1ccc(Nc2nc(-c3ccccc3F)cs2)cc1 [1-{4-[4-(2-Fluoro-phenyl)-thiazol-2-ylamino]-phenyl}-3-(1H-pyrazol-4-ylmethyl)-urea]
3,100 to 2000,Cn1nc(-c2ccc(NC(=O)NCc3cn[nH]c3)cc2)c2ccccc21 [1-[4-(1-Methyl-1H-indazol-3-yl)-phenyl]-3-(1H-pyrazol-4-ylmethyl)-urea]
4,100 to 2000,"Cc1ccc2c(-c3ccc(NC(=O)NCc4cn[nH]c4)cc3)nn(C)c2c1 [1-[4-(1,6-Dimethyl-1H-indazol-3-yl)-phenyl]-3-(1H-pyrazol-4-ylmethyl)-urea]"
5,100 to 2000,O=C(NCc1cn[nH]c1)Nc1ccc(S(=O)(=O)c2cn[nH]c2)cc1 [1-((1H-Pyrazol-4-yl)methyl)-3-(4-((1H-pyrazol-4-yl)sulfonyl)phenyl)urea]
6,100 to 2000,Cc1cccc(S(=O)(=O)c2ccc(NC(=O)NCc3cn[nH]c3)cc2)c1 [1-(1H-Pyrazol-4-ylmethyl)-3-[4-(toluene-3-sulfonyl)-phenyl]-urea]
7,100 to 2000,O=C(NCc1cn[nH]c1)Nc1ccc(Nc2nc(-c3ccc(Cl)cc3)cs2)cc1 [1-{4-[4-(4-Chloro-phenyl)-thiazol-2-ylamino]-phenyl}-3-(1H-pyrazol-4-ylmethyl)-urea]
8,2000 to 5000,CC(C)CN1CCC(S(=O)(=O)c2ccc(NC(=O)NCc3cn[nH]c3)cc2)CC1 [1-[4-(1-Isobutyl-piperidine-4-sulfonyl)-phenyl]-3-(1H-pyrazol-4-ylmethyl)-urea]
9,< 100,O=C(NCc1cn[nH]c1)Nc1ccc(NS(=O)(=O)Cc2ccc(Cl)cc2)cc1 [C-(4-Chloro-phenyl)-N-{4-[3-(1H-pyrazol-4-ylmethyl)-ureido]-phenyl}-methanesulfonamide]
10,5000 to 20000,COc1ccc(-c2ccccc2S(=O)(=O)c2ccc(NC(=O)NCc3cn[nH]c3)cc2)cn1 [1-((1H-Pyrazol-4-yl)methyl)-3-(4-((2-(6-methoxypyridin-3-yl)phenyl)sulfonyl)phenyl)urea]
11,5000 to 20000,Cc1ccc(-c2ccccc2S(=O)(=O)c2ccc(NC(=O)NCc3cn[nH]c3)cc2)cc1 [1-[4-(4′-Methyl-biphenyl-2-sulfonyl)-phenyl]-3-(1H-pyrazol-4-ylmethyl)-urea]

# Same assay, conditions: Table B-5; NAMPT activation, NMN formation
row,EC50 [nM],Structure (SMILES)
1,100 to 2000,O=C(NCc1cnco1)Nc1ccc(S(=O)(=O)c2ccccc2F)cc1 [1-(4-((2-Fluorophenyl)sulfonyl)phenyl)-3-(oxazol-5-ylmethyl)urea]
2,100 to 2000,O=C(NCc1cnco1)Nc1ccc(S(=O)(=O)c2ccc(F)cc2)cc1 [1-(4-((4-Fluorophenyl)sulfonyl)phenyl)-3-(oxazol-5-ylmethyl)urea]
3,2000 to 5000,O=C(NCc1cnco1)Nc1ccc(S(=O)(=O)c2ccc(Cl)nc2)cc1 [1-[4-(6-Chloro-pyridine-3-sulfonyl)-phenyl]-3-oxazol-5-ylmethyl-urea]
4,100 to 2000,O=C(NCc1cnco1)Nc1ccc(S(=O)(=O)c2cccnc2)cc1 [1-Oxazol-5-ylmethyl-3-[4-(pyridine-3-sulfonyl)-phenyl]-urea]
5,100 to 2000,O=C(NCc1cnco1)Nc1ccc(S(=O)(=O)C2CCN(C3CCOCC3)CC2)cc1 [1-Oxazol-5-ylmethyl-3-{4-[1-(tetrahydro-pyran-4-yl)-piperidine-4-sulfonyl]-phenyl}-urea]

# Same assay, conditions: Table B-6; NAMPT activation, NMN formation
row,EC50 [nM],Structure (SMILES)
1,< 100,O=C(NCc1ccncc1)Nc1ccc(NS(=O)(=O)Cc2ccc(-c3ccccc3)cc2)cc1 [C-Biphenyl-4-yl-N-[4-(3-pyridin-4-ylmethyl-ureido)-phenyl]-methanesulfonamide]
2,2000 to 5000,Cc1ccc(-c2ccccc2S(=O)(=O)c2ccc(NC(=O)NCc3ccncc3)cc2)cc1 [1-[4-(4′-Methyl-biphenyl-2-sulfonyl)-phenyl]-3-pyridin-4-ylmethyl-urea]
3,2000 to 5000,CN1CCC(S(=O)(=O)c2ccc(NC(=O)NCc3ccncc3)cc2)CC1 [1-[4-(1-Methyl-piperidine-4-sulfonyl)-phenyl]-3-pyridin-4-ylmethyl-urea]
4,< 100,CC(C)n1cc(S(=O)(=O)c2ccc(NC(=O)NCc3ccncc3)cc2)cn1 [1-[4-(1-Isopropyl-1H-pyrazole-4-sulfonyl)-phenyl]-3-pyridin-4-ylmethyl-urea]
5,100 to 2000,O=C(NCc1ccncc1)Nc1ccc(S(=O)(=O)c2ccc(Cl)nc2)cc1 [1-[4-(6-Chloro-pyridine-3-sulfonyl)-phenyl]-3-pyridin-4-ylmethyl-urea]
6,2000 to 5000,"N#Cc1cccc(-c2ccccc2S(=O)(=O)c2ccc(NC(=O)NCc3ccncc3)cc2)c1 [1-(4-((3′-Cyano-[1,1′-biphenyl]-2-yl)sulfonyl)phenyl)-3-(pyridin-4-ylmethyl)urea]"
